Test results reported in patent US5234947A, “Potassium channel activating compounds and methods of use thereof” (New York University, priority 1991, dated 1993).
Entries after “also recorded” stand apart in the source; their conditions may differ.

Key:
potassium channel = potassium channel activation (method not described); assay type: biochemical
craving for a cigarette = assay type: in vivo; conditions: cigarette smoking
From the text: The interference with the effects of withdrawal symptoms from addictive substances of the subject compounds is also consistent with potassium channel activation. […] As one gets a craving for a cigarette, there is a perception of muscular tension. The effects of potassium channel activators are to lower the blood pressure, relax the muscles and make breathing easier, all of which counteracts the feeling of craving one experiences upon withdrawal from an addictive substance.

[1] = target: T1, large 200-220 pS channel (large Ca++-dependent K+ channel) (Rattus norvegicus, UniProt Q62976); assay: lipid bilayer technique, rat brain membranes fused with a bilayer on a patch-clamp pipette; assay type: biochemical
T1 construct: single-channel recording
T1 sequence (Q62976 whole entry, the tested form may be a part): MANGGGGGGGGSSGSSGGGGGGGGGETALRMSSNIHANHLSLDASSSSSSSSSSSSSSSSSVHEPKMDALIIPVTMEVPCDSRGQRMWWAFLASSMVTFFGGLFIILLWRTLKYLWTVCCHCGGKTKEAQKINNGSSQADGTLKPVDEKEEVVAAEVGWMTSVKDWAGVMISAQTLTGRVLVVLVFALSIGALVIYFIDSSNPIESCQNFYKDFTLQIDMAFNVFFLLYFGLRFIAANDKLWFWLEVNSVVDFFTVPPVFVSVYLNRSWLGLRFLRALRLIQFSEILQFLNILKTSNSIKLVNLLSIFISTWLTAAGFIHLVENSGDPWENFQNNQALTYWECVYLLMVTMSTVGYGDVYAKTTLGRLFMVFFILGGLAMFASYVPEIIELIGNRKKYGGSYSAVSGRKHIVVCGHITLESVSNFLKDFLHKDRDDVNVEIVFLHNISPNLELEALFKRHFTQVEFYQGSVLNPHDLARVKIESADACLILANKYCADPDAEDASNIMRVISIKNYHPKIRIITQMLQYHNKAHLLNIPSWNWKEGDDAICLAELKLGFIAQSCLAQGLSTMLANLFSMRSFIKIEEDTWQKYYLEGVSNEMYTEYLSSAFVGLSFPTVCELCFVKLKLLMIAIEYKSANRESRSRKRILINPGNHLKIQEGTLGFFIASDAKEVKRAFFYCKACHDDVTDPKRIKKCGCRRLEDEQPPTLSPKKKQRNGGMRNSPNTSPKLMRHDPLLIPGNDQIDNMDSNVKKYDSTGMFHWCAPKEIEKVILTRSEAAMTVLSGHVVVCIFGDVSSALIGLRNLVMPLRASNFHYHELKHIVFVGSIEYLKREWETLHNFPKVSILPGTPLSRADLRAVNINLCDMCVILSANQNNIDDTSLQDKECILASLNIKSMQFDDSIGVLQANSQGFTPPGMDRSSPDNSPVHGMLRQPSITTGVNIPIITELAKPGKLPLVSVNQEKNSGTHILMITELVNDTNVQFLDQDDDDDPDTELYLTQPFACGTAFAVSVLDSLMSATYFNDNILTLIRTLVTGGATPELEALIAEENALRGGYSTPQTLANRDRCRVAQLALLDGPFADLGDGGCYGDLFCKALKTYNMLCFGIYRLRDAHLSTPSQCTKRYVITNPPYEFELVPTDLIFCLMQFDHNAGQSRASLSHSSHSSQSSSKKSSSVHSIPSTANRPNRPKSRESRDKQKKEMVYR
Description: Isolated avena pyrone was studied for its action against ionic channels in cell membranes using the lipid bilayer technique. Membranes from rat brain were fused with a lipid bilayer formed across the opening of a patch-clamp pipette. Electrical activity was monitored using an Axon Instruments Axopatch amplifier using 100 mM symmetrical KCl solutions. In the presence of elevated levels of calcium, at least three types of potassium channel can be determined: a small 25-50 pS channel, a 90-120 pS channel, and a large 200-220 pS channel. In the absence of calcium in the bathing solutions, openings of the large 200 pS channel are rarely seen.
FIGS. 1 and 2 show the exposure of the channels to potassium in the presence of avena pyrone. In the two tracings in FIG. 1, the membrane potential was held at -25 mV. Under these conditions, the mid-sized K^+ channel is very active but the large channel is rarely open during the approximately 1.5 seconds shown. […] The effect is most pronounced under low calcium conditions.

Compound	potassium channel activation (potassium channel)	craving for a cigarette (craving for a cigarette)	activation of the large K+ channel ([1]; absence of calcium / low calcium, 100 mM symmetrical KCl, membrane potential -25 mV)	open times of the large channel ([1]; avena pyrone added to the bath, -25 mV)	open probability of the large channel ([1]; avena pyrone added to the bathing solution)	activation of the large channel ([1]; conditions of greater calcium concentration)
COC1=CC(=O)O[C@@H](/C=C/c2ccccc2)C1 [kawain]	potassium channel activating substance	–	–	–	–	–
CC1CCCC(=O)O1 (stereo not drawn) [avena pyrone, 2H-6-methyltetrahydropyran-2-one]	–	reduce the craving for a cigarette	activation of the large K^+ channel is seen; also recorded: the large channel was activated	very long open times; also recorded: increased from a few milliseconds to times approaching seconds	increased open probability; also recorded: substantially increasing the open probability	still capable of activation of the channel but to a lesser degree
